In general, pEC50 refers to the negative decadic logarithm of the EC50, by convention in mol/L. In general, CC50 refers to the concentration that lowers cell viability or growth by half. Broadly, the half-life is the time needed for the level to fall by half in the phase considered. In general, microsomal CLint refers to the capacity of the preparation to metabolise the compound, expressed as a volume cleared per time. Usually solubility stands for how much of the substance goes into solution per volume. As a reminder, the chromatographic logD is a lipophilicity value derived from retention on a column. For orientation: pIC50 means −log10 of the IC50, conventionally taken in molar units.

pEC50, pIC50: −log10 of the molar value.

Series [1] has as its system Plasmodium falciparum. The series can be described thus: Antiplasmodial activity against erythrocytic stage of chloroquine, pyrimethamine and sulfadoxine resistant Plasmodium falciparum K1 infected in human erythrocytes assessed as reduction in parasite growth incubated for 72 hrs by SYBR green I fluorescence based spectrophotometric analysis. The class given is functional, organism-based. The following applies: K1, Erythrocyte.

Series [2] is described as follows: Cytotoxicity against human HepG2 cells assessed as reduction in cell viability incubated for 72 hrs by MTT assay. Type of series: toxicity, cell-based. (In general: Formazan colour is commonly taken as a measure of viable cells.)
Series [3] is described as follows: Selectivity index, ratio of CC50 for cytotoxicity against human HepG2 cells to EC50 for antiplasmodial activity against erythrocytic stage of chloroquine, pyrimethamine and sulfadoxine resistant Plasmodium falciparum K1 infected in human erythrocytes. Type of series: toxicity, cell-based. The conditions noted are these: read-out: Ratio CC50/EC50.
Series [4] deals with Plasmodium berghei. In words: Antiplasmodial activity against hepatic stage of Plasmodium berghei ANKA sporozoites infected in Cynomolgous monkey hepatocytes harboring Simian virus assessed as reduction in parasite growth administered for 3 hrs followed by replacement with fresh medium containing compound for every 24 hrs by DAPI staining based analysis. Type of series: functional, organism-based. The following applies: Hepatocyte.

A short description of series [5]: Cytotoxicity against Cynomolgous monkey hepatocytes harboring Simian virus assessed as reduction in cell viability administered for 3 hrs followed by replacement with fresh medium containing compound for every 24 hrs by DAPI staining based analysis. The class given is toxicity, Macaca fascicularis, Hepatocyte. The following applies: cynomolgus monkey.
Series [6] can be described thus: Stability in CD-1 mouse microsomes assessed as half-life in presence of NADP. Type of series: ADME, Microsome.
Series [7] in a line: Stability in CD-1 mouse microsomes assessed as intrinsic clearance measured upto 40 mins in presence of NADP. The class given is ADME, Microsome.
The nature of series [8]: Solubility of compound in DMSO. The class given is physicochemical.
Series [9] is described as follows: Effective permeability of compound at pH 7.4 incubated for 4 hrs by PAMPA-GIT assay. Type of series: ADME. The conditions noted are these: read-out: Peff. (In general: PAMPA measures passive passage across an artificial lipid membrane.)
Series [10] can be described thus: Solubility of compound in PBS at 1 mg incubated for 10 mins by HPLC analysis. The class given is physicochemical.
The nature of series [11]: Chromatographic hydrophobicity index, log D of the compound at pH 7.4 by HPLC analysis. The following applies: buffer. Type of series: physicochemical.
Series [12] is described as follows: Effective permeability of compound at pH 5 incubated for 4 hrs by PAMPA-GIT assay. The conditions noted are these: read-out: Peff. Type of series: ADME.
Series [13] deals with Voltage-gated inwardly rectifying potassium channel KCNH2 (Homo sapiens, UniProt Q12809). The series can be described thus: Inhibition of hERG incubated for 4 hrs by fluorescence polarization assay. The class given is toxicity. (In general: Block of hERG is tested as a sign of cardiac risk.)
Sequence of Voltage-gated inwardly rectifying potassium channel KCNH2 (Q12809 whole entry): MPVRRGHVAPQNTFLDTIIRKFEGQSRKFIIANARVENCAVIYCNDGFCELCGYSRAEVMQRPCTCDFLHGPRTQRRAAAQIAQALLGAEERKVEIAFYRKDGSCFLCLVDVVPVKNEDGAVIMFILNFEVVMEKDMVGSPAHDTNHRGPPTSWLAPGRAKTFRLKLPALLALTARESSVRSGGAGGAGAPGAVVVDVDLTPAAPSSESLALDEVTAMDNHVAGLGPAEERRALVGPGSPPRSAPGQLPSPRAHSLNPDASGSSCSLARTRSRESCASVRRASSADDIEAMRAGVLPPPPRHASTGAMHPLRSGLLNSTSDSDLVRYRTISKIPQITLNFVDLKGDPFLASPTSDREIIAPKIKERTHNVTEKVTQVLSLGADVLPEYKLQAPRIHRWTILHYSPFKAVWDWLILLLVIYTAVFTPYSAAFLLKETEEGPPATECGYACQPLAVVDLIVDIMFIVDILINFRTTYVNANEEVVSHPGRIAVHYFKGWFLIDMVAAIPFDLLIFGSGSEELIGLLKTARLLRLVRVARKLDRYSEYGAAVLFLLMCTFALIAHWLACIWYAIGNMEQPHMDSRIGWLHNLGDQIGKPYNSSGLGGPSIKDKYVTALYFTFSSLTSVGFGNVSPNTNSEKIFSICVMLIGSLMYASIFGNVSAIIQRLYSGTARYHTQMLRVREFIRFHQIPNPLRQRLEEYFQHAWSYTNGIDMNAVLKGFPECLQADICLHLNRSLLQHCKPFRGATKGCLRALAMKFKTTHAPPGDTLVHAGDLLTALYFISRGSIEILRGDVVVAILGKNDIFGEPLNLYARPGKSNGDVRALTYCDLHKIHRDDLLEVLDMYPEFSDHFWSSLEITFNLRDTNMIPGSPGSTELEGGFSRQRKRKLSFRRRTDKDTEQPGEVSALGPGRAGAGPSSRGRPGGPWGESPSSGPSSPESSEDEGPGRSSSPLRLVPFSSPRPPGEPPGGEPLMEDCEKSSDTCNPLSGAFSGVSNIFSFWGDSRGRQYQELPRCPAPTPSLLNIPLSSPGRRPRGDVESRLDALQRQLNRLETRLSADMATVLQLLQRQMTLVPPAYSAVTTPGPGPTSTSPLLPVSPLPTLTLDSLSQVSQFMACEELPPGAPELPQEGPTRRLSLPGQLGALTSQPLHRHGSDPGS

In the case of `Cc1ccc(-c2cc3nc(N4CCCCC4)[nH]c(=O)c3s2)cc1`, the pEC50 in series [1] was under 4.60. For the same compound, in series [2], the CC50 at 72 h is over 3.1 µM.
For `C[C@H]1c2cccc(O)c2C(=O)C2=C(O)[C@]3(O)C(=O)C(C(N)=O)=C(O)[C@@H](N(C)C)[C@@H]3[C@@H](O)[C@@H]21` [DOXYCYCLINE ANHYDROUS], in series [3], the selectivity ratio was found to be 4.
As to `Cc1ccc(-c2cc3nc(NC4CCC4)[nH]c(=O)c3s2)cc1`, the pEC50 in series [4] was 4.95; in series [1], 5.96. For the same compound, the CC50 at 72 h in series [2] was 14 µM. In addition, in series [3], the selectivity ratio was 12.7. Besides, the CC50 at 3 h in series [5] is over 100 µM. The half-life in series [6] came out at 29 min. The intrinsic clearance (microsomal CLint) in series [7] turned out to be 78 µL/min/mg.
As for `Cc1ccc(-c2cc3nc(N)n(CCCN(C)C)c(=O)c3s2)cc1`, in series [1], the pEC50 was 5.01. Further, in [2], the CC50 at 72 h turned out to be 4.1 µM. The selectivity ratio in series [3] was 0.42.
Consider `Cc1ccc(-c2cc3nc(NC4CCCC4)[nH]c(=O)c3s2)cc1`, for which the pEC50 was 4.98 in [4] and 5.85 in series [1]. Besides, the CC50 at 72 h in series [2] is over 7.8 µM. In addition, the selectivity ratio in series [3] was over 5.6. Moreover, in series [5], the CC50 at 3 h is over 100 µM. Further, the half-life in [6] was found to be 38 min. In addition, the intrinsic metabolic clearance (microsomal CLint) in [7] stood at 58 µL/min/mg.
As for `Cc1ccc(-c2cc3nc(N)n(C)c(=O)c3s2)cc1`, the pEC50 in [1] is under 4.60. In addition, in [2], the CC50 at 72 h was over 6.2 µM.
As to `[2H]C([2H])([2H])C(Nc1nc2cc(-c3ccc(C)cc3)sc2c(=O)[nH]1)C([2H])([2H])[2H]`, the figures for the pEC50 in [4] and in [1] were 4.80 and 6.70, respectively. In series [2], the CC50 at 72 h is over 10 µM. Moreover, the selectivity ratio in series [3] was over 50. The CC50 at 3 h in series [5] is over 100 µM. For the same compound, in [6], the half-life is 11 min. Also, the microsomal CLint in [7] was determined as 214 µL/min/mg.
For `Cc1ccc(-c2cc3nc(N4CCCC4)[nH]c(=O)c3s2)cc1`, the values for the pEC50 in [4] and in series [1] were under 4.00 and 5.85, respectively. In addition, the CC50 at 72 h in series [2] is over 3.1 µM. In addition, in series [3], the selectivity ratio is over 2.1. Moreover, the CC50 at 3 h in series [5] is over 200 µM.
As to `Cc1ccc(-c2cc3nc(N4CCC4)[nH]c(=O)c3s2)cc1`, in [8], the solubility entry is recorded as “Insoluble”.
For `Cc1ccc(-c2cc3nc(NC4CC4)[nH]c(=O)c3s2)cc1`, the pEC50 is 5.26 in [4] and 6.05 in series [1]. Besides, the CC50 at 72 h in series [2] came to 4 µM. Further, the selectivity ratio in series [3] is 4.4. The CC50 at 3 h in [5] is over 100 µM. In series [6], the half-life was determined as 15 min. Moreover, the microsomal CLint in series [7] came to 136 µL/min/mg.
Regarding `Cc1ccc(-c2cc3nc(NC(C)(C)C)n(-c4ccccc4)c(=O)c3s2)cc1`, the negative-log EC50 (pEC50) in series [1] is under 4.90. Moreover, the CC50 at 72 h in series [2] is over 3.1 µM.
Consider `Cc1ccc(-c2cc3nc(N4CCN(C)CC4)[nH]c(=O)c3s2)cc1`, for which the pEC50 in [1] is under 4.60. In addition, the CC50 at 72 h in series [2] was 8.7 µM. Moreover, the selectivity ratio in series [3] was under 0.3.
Regarding `Cc1ccc(-c2cc3nc(NC4CCC4)[nH]c(=O)c3s2)cc1.Cl`, the Papp at 4 h in series [9] came to 4.36 ×10⁻⁶ cm/s; in series [12], 18.1 ×10⁻⁶ cm/s. The compound also came in with a solubility at 10 min in series [10] of 1.4 µM. In series [11], this compound showed a chromatographic logD of 3.16. In series [13], this compound showed a pIC50 of under 4.00.
In the case of `COc1cc(NC(C)CCCN)c2ncccc2c1` (stereo not drawn) [PRIMAQUINE], the pEC50 in series [4] is 5.14. For the same compound, the CC50 at 3 h in [5] is over 50 µM.
As for `Cc1ccc(-c2cc3nc(NC(C)C)[nH]c(=O)c3s2)cc1`, the pEC50 in series [4] was 4.25. Also, the CC50 at 3 h in series [5] is over 200 µM. Also, the half-life in series [6] is 11 min. The microsomal CLint in [7] was 214 µL/min/mg.
Take `Cc1ccc(-c2cc3nc(N4CCOCC4)[nH]c(=O)c3s2)cc1`: the pEC50 in [1] is under 5.00. The CC50 at 72 h in series [2] amounted to 3.6 µM. The selectivity ratio in series [3] was under 0.4.
Consider `Cc1ccc(-c2cc3nc(N[C@H]4CCNC4)[nH]c(=O)c3s2)cc1`, for which the pEC50 in series [1] was under 4.51. Besides, the CC50 at 72 h in [2] was 13.2 µM. Besides, the selectivity ratio in series [3] was under 0.4.
Turning to `[2H]C([2H])([2H])C(Nc1nc2cc(-c3ccc(C)cc3)sc2c(=O)[nH]1)(C([2H])([2H])[2H])C([2H])([2H])[2H]`, the pEC50 was 4.86 in [4] and 7.00 in series [1]. The CC50 at 72 h in [2] was 17.9 µM. Moreover, the selectivity ratio in [3] is 149. In addition, the cytotoxic concentration (CC50) at 3 h in [5] was over 100 µM. Besides, the half-life in [6] amounted to 8.5 min. In series [7], the microsomal CLint was 209 µL/min/mg.
Regarding `Cc1ccc(-c2cc3nc(NC(C)(C)C)n(C(C)C)c(=O)c3s2)cc1`, the pEC50 in series [1] was 5.38. Also, the CC50 at 72 h in series [2] is over 3.9 µM. In [3], the selectivity ratio was over 0.9.
Regarding `Cc1ccc(-c2cc3nc(C(C)(C)C)[nH]c(=O)c3s2)cc1`, in [13], the pIC50 was under 4.00.
In the case of `CCn1c(NC(C)(C)C)nc2cc(-c3ccc(C)cc3)sc2c1=O`, the pEC50 in series [1] was under 4.90. Further, the 50% cytotoxic concentration (CC50) at 72 h in [2] was found to be 5.8 µM. In addition, the selectivity ratio in [3] stood at 1.4.
Consider `Cc1ccc(-c2cc3nc(NC(C)(C)C(F)(F)F)[nH]c(=O)c3s2)cc1`, for which the pEC50 in series [1] was under 5.00. In addition, in series [2], the CC50 at 72 h is 23.9 µM. For the same compound, the selectivity ratio in [3] was over 10.
Take `Cc1ccc(-c2cc3nc(NC4CCCCC4)[nH]c(=O)c3s2)cc1`: the pEC50 in [1] was under 4.90. The CC50 at 72 h in series [2] was over 12.5 µM.

Source of the values: ChEMBL document CHEMBL5634142, “Novel thienopyrimidones targeting hepatic and erythrocytic stages of Plasmodium parasites with increased microsomal stability” (Eur J Med Chem, 2023).
